Test system: not listed separately
Experiment: In-vivo pharmacokinetics and metabolite to parent ratio in plasma of cynomolgus monkeys
Conditions: cynomolgus monkey, female cynomolgus monkeys, 3 mg/kg oral versus 1 mg/kg intravenous
Experimental: The tested compounds were prepared as a solution for either intravenous or oral administration to groups of female cynomolgus monkeys. For intravenous dosing, the compounds were prepared in a 10% DMSO/PEG-400 vehicle at a concentration of 2 mg/ml. For oral dosing, the compounds were prepared in a lipid based vehicle at a concentration of 3 mg/ml. Groups of three monkeys received either a 1 mg/kg (0.5 ml/kg) intravenous dose or a 3 mg/kg (1 ml/kg) oral dose. The intravenous dose was administered as a slow bolus in a saphenous vein; the oral dose was administered by gastric intubation and was followed by ˜5 ml water. […] The samples were reconstituted with an aliquot of mobile phase, followed by quantification by HPLC-MS/MS. Standard curves for both parent and the selected metabolites were prepared from authentic standards in blank monkey plasma; standards were analyzed simultaneously with the samples. The plasma concentration of each sample was calculated by least squares linear regression analysis of the peak area ratio (parent or metabolite/internal standard) of the spiked plasma standards versus concentration.
Peak plasma concentrations (Cmax) and the time to peak plasma concentration (Tmax) were read directly from the plasma concentration data for each monkey. […] The apparent total plasma clearance (CLp) was calculated by dividing the administered dose by the AUC0-inf. […]

bioavailability [%] | SMILES
3 | NC(=O)C(=O)C(Cc1ccccc1)NC(=O)c1cccnc1-n1cc2ccccc2n1 (stereo not drawn) [comp. ex., N-(3-Amino-1-benzyl-2,3-dioxopropyl)-2-(2H-indazol-2-yl)nicotinamide]

Molecular target: T1, calpain-I (Homo sapiens, UniProt P07384)
T1 construct: calpain-I—isolated from human erythrocytes; purchased Calbiochem 208713; host or cells: human erythrocytes (native tissue isolate)
T1 sequence (P07384 1-714): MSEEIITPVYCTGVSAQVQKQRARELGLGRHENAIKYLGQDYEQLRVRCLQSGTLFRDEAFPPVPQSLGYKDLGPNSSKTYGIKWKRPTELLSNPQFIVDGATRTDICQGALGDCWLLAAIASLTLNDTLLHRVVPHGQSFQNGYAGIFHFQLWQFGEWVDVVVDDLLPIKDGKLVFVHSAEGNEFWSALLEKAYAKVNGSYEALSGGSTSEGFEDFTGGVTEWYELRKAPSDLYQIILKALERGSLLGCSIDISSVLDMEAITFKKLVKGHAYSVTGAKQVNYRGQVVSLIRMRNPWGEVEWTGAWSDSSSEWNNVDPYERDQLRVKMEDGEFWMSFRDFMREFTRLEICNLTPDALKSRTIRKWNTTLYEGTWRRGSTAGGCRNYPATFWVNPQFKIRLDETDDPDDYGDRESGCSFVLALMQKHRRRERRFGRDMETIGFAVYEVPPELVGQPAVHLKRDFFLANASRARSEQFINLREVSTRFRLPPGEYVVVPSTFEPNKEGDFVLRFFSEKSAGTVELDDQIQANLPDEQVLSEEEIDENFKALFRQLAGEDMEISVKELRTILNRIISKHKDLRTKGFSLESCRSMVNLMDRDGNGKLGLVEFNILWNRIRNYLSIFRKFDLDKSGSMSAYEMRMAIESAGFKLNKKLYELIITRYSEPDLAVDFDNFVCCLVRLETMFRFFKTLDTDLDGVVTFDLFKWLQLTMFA
T1 sequence (P04632 1-268 partner): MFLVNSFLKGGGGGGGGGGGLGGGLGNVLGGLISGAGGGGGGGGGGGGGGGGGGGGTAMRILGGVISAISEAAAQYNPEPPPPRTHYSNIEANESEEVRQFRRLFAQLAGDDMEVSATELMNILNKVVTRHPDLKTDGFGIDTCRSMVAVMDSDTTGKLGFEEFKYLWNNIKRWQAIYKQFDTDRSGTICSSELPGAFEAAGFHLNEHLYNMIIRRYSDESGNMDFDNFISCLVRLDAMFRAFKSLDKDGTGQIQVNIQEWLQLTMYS
Experiment: Calpain I enzyme inhibition in vitro (kinetic fluorescence assay)
Format: biochemical
Conditions: apparent Ki from IC50 by Cheng-Prussoff; calpain-I from human erythrocytes, pH 7.3
Experimental: Testing for blockade of the corresponding enzymic activities was carried out by means of kinetic fluorescence assays (excitation 390 nm, emission 460 nm).
Apparent Ki values were calculated from the experimentally determined IC50 values by the Cheng-Prussoff relation assuming a reversible competitive enzyme inhibition.
20 nM calpain-I—isolated from human erythrocytes (Calbiochem #208713), 100 μM Suc-Leu-Tyr-AMC (Bachem #I-1355) as substrate in buffer with 62 mM imidazole, 0.3 mM CaCl2, 0.10% CHAPS, 0.05% BSA, 1 mM DTT at pH 7.3 and room temperature.

SMILES | Calpain activity (Ki(calpain)) | Ki [nM]
CCNC(=O)C(=O)C(Cc1ccccc1)NC(=O)c1cccnc1-n1cc2ccccc2n1 (stereo not drawn) [Example 2, N-[4-(Ethylamino)-3,4-dioxo-1-phenyl-2-butanyl]-2-(2H-indazol-2-yl)nicotinamide] | ∘ | 
O=C(NC1CC1)C(=O)C(Cc1ccccc1)NC(=O)c1cccnc1-n1cc2c(n1)CCCC2 (stereo not drawn) [Example 5, N-[4-(Cyclopropylamino)-3,4-dioxo-1-phenyl-2-butanyl]-2-(4,5,6,7-tetrahydro-2H-indazol-2-yl)nicotinamide] |  | 400 to 800
CCONC(=O)C(=O)C(Cc1ccccc1)NC(=O)c1cccnc1-n1cc2ccccc2n1 (stereo not drawn) [Example 4, N-[4-(Ethoxyamino)-3,4-dioxo-1-phenyl-2-butanyl]-2-(2H-indazol-2-yl)nicotinamide] |  | < 250
CONC(=O)C(=O)C(Cc1ccccc1)NC(=O)c1cccnc1-n1cc2ccc(F)cc2n1 (stereo not drawn) [Example 8, 2-(6-Fluoro-2H-indazol-2-yl)-N-[4-(methoxyamino)-3,4-dioxo-1-phenyl-2-butanyl]-3-pyridinecarboxamide] |  | 250 to 400
O=C(NC1CC1)C(=O)C(Cc1ccccc1)NC(=O)c1cccnc1-n1cc2ccccc2n1 (stereo not drawn) [Example 1, N-[4-(Cyclopropylamino)-3,4-dioxo-1-phenylbutan-2-yl]-2-(2H-indazol-2-yl)nicotinamide] |  | 400 to 800

Further lines, results first:

Calpain activity (Ki(calpain)) | Ki [nM] | SMILES
 | < 250 | CONC(=O)C(=O)C(Cc1ccccc1)NC(=O)c1cccnc1-n1cc2cc(F)ccc2n1 (stereo not drawn) [Example 7, 2-(5-Fluoro-2H-indazol-2-yl)-N-[4-(methoxyamino)-3,4-dioxo-1-phenyl-2-butanyl]-3-pyridinecarboxamide]
 | < 250 | CONC(=O)C(=O)C(Cc1ccccc1)NC(=O)c1cccnc1-n1cc2ccc(C(F)(F)F)cc2n1 (stereo not drawn) [Example 9, N-[4-(Methoxyamino)-3,4-dioxo-1-phenyl-2-butanyl]-2-[6-(trifluoromethyl)-2H-indazol-2-yl]-3-pyridinecarboxamide]
 | < 250 | CONC(=O)C(=O)C(Cc1ccccc1)NC(=O)c1cccnc1-n1cc2ccccc2n1 (stereo not drawn) [Example 3, 2-(2H-Indazol-2-yl)-N-[4-(methoxyamino)-3,4-dioxo-1-phenyl-2-butanyl]nicotinamide]

— patent US9062027B2, “Carboxamide compounds and their use as calpain inhibitors V” (AbbVie Deutschland GmbH & Co. KG, priority 2010, dated 2015)
